The source of these data is patent US9296693B2, “Acyl piperidine inhibitors of soluble epoxide hydrolase” (The Regents of the University of California, priority 2010, dated 2016).

Structures are written as SMILES. “And” between values parts separate entries of the source, which are not always exact repeats. Equal entries are not always repeated. Where two headings read alike, the source gives them in different places.

The term IC50 denotes the concentration at which inhibition is half-maximal.

One experiment addresses Human sEH (Homo sapiens (Human), UniProt P34913). The experiment is described as follows: fluorescent based IC50 assay (CMNPC substrate), recombinant human sEH.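 Also: enzyme preincubated with inhibitor for 5 min before adding substrate, in 25 mM Bis-Tris/HCl buffer supplemented with 0.1 mg/mL BSA.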
For a further experiment, the target named is murine sEH (Mus musculus (Mouse), UniProt P34914). The experiment is described as follows: fluorescent based IC50 assay (CMNPC substrate), recombinant murine sEH. Conditions: homogenous recombinant murine sEH 1 nM, CMNPC 5 μM, pH 7.0, 30° C., average of three replicates. It counts as biochemical.
The mark [1] stands for this setting: read-out: IC50 (nM) Human, homogenous recombinant human sEH 1 nM, CMNPC 5 μM, pH 7.0, 30° C., average of three replicates.

Chain of Human sEH (P34913 whole entry): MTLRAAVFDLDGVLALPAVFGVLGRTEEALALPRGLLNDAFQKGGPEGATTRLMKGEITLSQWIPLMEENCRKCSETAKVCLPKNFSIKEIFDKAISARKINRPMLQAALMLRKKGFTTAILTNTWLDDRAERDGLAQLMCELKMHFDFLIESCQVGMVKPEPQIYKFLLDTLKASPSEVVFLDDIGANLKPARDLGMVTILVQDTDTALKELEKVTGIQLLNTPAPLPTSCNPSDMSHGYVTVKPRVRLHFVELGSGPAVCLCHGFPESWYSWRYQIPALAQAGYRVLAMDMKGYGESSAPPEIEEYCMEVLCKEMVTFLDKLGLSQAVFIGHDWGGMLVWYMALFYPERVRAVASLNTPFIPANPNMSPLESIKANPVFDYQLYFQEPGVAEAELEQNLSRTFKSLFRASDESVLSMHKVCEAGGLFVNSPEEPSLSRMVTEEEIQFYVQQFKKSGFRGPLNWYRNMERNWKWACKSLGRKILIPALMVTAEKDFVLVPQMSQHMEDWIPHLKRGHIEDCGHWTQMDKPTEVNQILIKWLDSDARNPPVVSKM
Chain of murine sEH (P34914 whole entry): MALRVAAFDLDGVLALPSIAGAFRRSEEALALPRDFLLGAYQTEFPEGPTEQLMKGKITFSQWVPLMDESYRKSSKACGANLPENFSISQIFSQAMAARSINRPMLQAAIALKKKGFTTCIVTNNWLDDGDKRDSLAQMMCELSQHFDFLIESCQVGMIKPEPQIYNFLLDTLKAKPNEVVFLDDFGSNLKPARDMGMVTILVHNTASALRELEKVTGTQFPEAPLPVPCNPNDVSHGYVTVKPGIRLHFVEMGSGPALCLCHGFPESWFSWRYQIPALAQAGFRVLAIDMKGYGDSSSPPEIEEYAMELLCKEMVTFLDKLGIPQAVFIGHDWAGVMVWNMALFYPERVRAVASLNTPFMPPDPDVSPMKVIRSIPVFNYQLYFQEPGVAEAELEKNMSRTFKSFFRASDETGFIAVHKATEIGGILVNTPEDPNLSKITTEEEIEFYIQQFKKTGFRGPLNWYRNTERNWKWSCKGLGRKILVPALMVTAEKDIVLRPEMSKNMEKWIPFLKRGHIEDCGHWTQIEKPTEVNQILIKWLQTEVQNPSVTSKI

Turning to `CCC(=O)N1CCC(NC(=O)NC23CC4CC(CC(C4)C2)C3)CC1` [Compound 2, 1-(1-Adamantyl)-3-(1-propionylpiperidin-4-yl)urea], the IC50 amounted to 2.8 nM at Human sEH (setting [1]) and 1.2 nM at murine sEH.

On to `CCC(=O)N1CCC(NC(=O)NC2CCCCCC2)CC1` [Compound 3, 1-Cycloheptyl-3-(1-propionylpiperidin-4-yl)urea], for which the IC50 was 3.9 nM at Human sEH (setting [1]) and 0.9 nM on murine sEH.

Turning to `CCC(=O)N1CCC(NC(=O)NC2CCCCC2)CC1` [Compound 4, 1-Cyclohexyl-3-(1-propionylpiperidin-4-yl)urea], the IC50 at Human sEH (setting [1]) was determined as 12 nM; at murine sEH, 3.5 nM.

With `CCCCCCCCNC(=O)NC1CCN(C(=O)CC)CC1` [Compound 5, 1-Octyl-3-(1-propionylpiperidin-4-yl)urea], the IC50 was 3.2 nM at Human sEH (setting [1]) and 0.4 nM on murine sEH.

For `CCC(=O)N1CCC(NC(=O)Nc2ccccc2)CC1` [Compound 7, 1-Phenyl-3-(1-propionylpiperidin-4-yl)urea], the IC50 turned out to be 130 nM on Human sEH (setting [1]) and 49 nM on murine sEH.

In the case of `CCC(=O)N1CCC(NC(=O)Nc2ccc3ccccc3c2)CC1` [Compound 8, 1-(Naphthalen-2-yl)-3-(1-propionylpiperidin-4-yl)urea], the IC50 on Human sEH (setting [1]) came out at 3 nM; on murine sEH it was 4.2 nM.

With `CCC(=O)N1CCC(NC(=O)Nc2ccccc2C)CC1` [Compound 10, 1-(1-Propionylpiperidin-4-yl)-3-o-tolylurea], the IC50 on Human sEH (setting [1]) is 1700 nM; on murine sEH it was > 5000 nM and 5100 nM.

For `CCC(=O)N1CCC(NC(=O)Nc2cccc(C)c2)CC1` [Compound 11], the half-inhibitory concentration (IC50) is 40 nM on Human sEH (setting [1]) and 8.7 nM at murine sEH.

On to `CCC(=O)N1CCC(NC(=O)Nc2ccc(CC)cc2)CC1` [Compound 13, 1-(4-Ethylphenyl)-3-(1-propionylpiperidin-4-yl)urea], for which the IC50 is 8.3 nM at Human sEH (setting [1]) and 1.3 nM on murine sEH.

Turning to `CCC(=O)N1CCC(NC(=O)Nc2ccc(C(C)C)cc2)CC1` [Compound 14, 1-(4-Isopropylphenyl)-3-(1-propionylpiperidin-4-yl)urea], the IC50 on Human sEH (setting [1]) amounted to 2.8 nM; at murine sEH it was 3.3 nM.

Consider `CCC(=O)N1CCC(NC(=O)Nc2ccc(OC)cc2)CC1` [Compound 15, 1-(4-Methoxyphenyl)-3-(1-propionylpiperidin-4-yl)urea], for which the IC50 amounted to 87 nM at Human sEH (setting [1]) and 8.7 nM at murine sEH.

As to `CCC(=O)N1CCC(NC(=O)Nc2ccc(Oc3ccccc3)cc2)CC1` [Compound 16, 1-(4-Phenoxyphenyl)-3-(1-propionylpiperidin-4-yl)urea], the results for the IC50 on Human sEH (setting [1]) and on murine sEH were 3.5 nM and 0.4 nM, respectively.

In the case of `CCC(=O)N1CCC(NC(=O)Nc2cc(OC)c(OC)c(OC)c2)CC1` [Compound 18, 1-(1-Propionylpiperidin-4-yl)-3-(3,4,5-trimethoxyphenyl)urea], the IC50 on Human sEH (setting [1]) is over 5000 nM; on murine sEH, > 5000 nM and 25000 nM.

Consider `CCC(=O)N1CCC(NC(=O)Nc2ccc(N3CCOCC3)cc2)CC1` [Compound 19, 1-(4-Morpholinophenyl)-3-(1-propionylpiperidin-4-yl)urea], for which the IC50 at Human sEH (setting [1]) amounted to 2000 nM; on murine sEH, 650 nM.

With `CCC(=O)N1CCC(NC(=O)Nc2ccc([N+](=O)[O-])cc2)CC1` [Compound 20, 1-(4-Nitrophenyl)-3-(1-propionylpiperidin-4-yl)urea], the IC50 at murine sEH was found to be 97 nM.

Regarding `CCC(=O)N1CCC(NC(=O)Nc2ccc(C(=O)O)cc2)CC1` [Compound 22, 4-(3-(1-Propionylpiperidin-4-yl)ureido)benzoic acid], the IC50 at Human sEH (setting [1]) is 330 nM; at murine sEH it was 1000 nM.

For `CCC(=O)N1CCC(NC(=O)Nc2ccc(O)cc2)CC1` [Compound 23, 1-(4-Hydroxyphenyl)-3-(1-propionylpiperidin-4-yl)urea], on murine sEH, the IC50 was 1400 nM.

Take `CCC(=O)N1CCC(NC(=O)Nc2ccc(Cl)cc2)CC1` [Compound 25, 1-(4-Chlorophenyl)-3-(1-propionylpiperidin-4-yl)urea]: the values for the IC50 at Human sEH (setting [1]) and at murine sEH were 10 nM and 23 nM, respectively.

Consider `CCC(=O)N1CCC(NC(=O)Nc2ccc(Br)cc2)CC1` [Compound 26, 1-(4-Bromophenyl)-3-(1-propionylpiperidin-4-yl)urea], for which the IC50 came to 3.6 nM on Human sEH (setting [1]) and 15 nM on murine sEH.

Turning to `CCC(=O)N1CCC(NC(=O)Nc2ccc(I)cc2)CC1` [Compound 27, 1-(4-Iodophenyl)-3-(1-propionylpiperidin-4-yl)urea], the IC50 on Human sEH (setting [1]) came out at 7.2 nM; on murine sEH it was 1.4 nM.

Turning to `CCC(=O)N1CCC(NC(=O)Nc2cccc(F)c2)CC1` [Compound 28, 1-(3-Fluorophenyl)-3-(1-propionylpiperidin-4-yl)urea], the IC50 at Human sEH (setting [1]) turned out to be 39 nM; at murine sEH, 20 nM.

In the case of `CCC(=O)N1CCC(NC(=O)Nc2ccccc2F)CC1` [Compound 29, 1-(2-Fluorophenyl)-3-(1-propionylpiperidin-4-yl)urea], the results for the IC50 at Human sEH (setting [1]) and at murine sEH were 300 nM and 780 nM, respectively.

`CCC(=O)N1CCC(NC(=O)Nc2cccc(Cl)c2)CC1` [Compound 30, 1-(3-Chlorophenyl)-3-(1-propionylpiperidin-4-yl)urea]: the values for the IC50 at Human sEH (setting [1]) and on murine sEH were 21 nM and 6.6 nM, respectively.

As for `CCC(=O)N1CCC(NC(=O)Nc2ccccc2Cl)CC1` [Compound 31, 1-(2-Chlorophenyl)-3-(1-propionylpiperidin-4-yl)urea], the IC50 on Human sEH (setting [1]) turned out to be 1100 nM; on murine sEH it was 2900 nM.

For `CCC(=O)N1CCC(NC(=O)Nc2ccc(Cl)c(Cl)c2)CC1` [Compound 32, 1-(3,4-Dichlorophenyl)-3-(1-propionylpiperidin-4-yl)urea], the values for the IC50 at Human sEH (setting [1]) and at murine sEH were 3.4 nM and 0.6 nM, respectively.

`CCC(=O)N1CCC(NC(=O)Nc2cc(Cl)cc(Cl)c2)CC1` [Compound 33, 1-(3,5-Dichlorophenyl)-3-(1-propionylpiperidin-4-yl)urea]: the figures for the IC50 on Human sEH (setting [1]) and at murine sEH were 0.4 nM and 1 nM, respectively.

With `CCC(=O)N1CCC(NC(=O)Nc2c(Cl)cccc2Cl)CC1` [Compound 34, 1-(2,6-Dichlorophenyl)-3-(1-propionylpiperidin-4-yl)urea], the IC50 is over 5000 nM on Human sEH; over 50000 nM on Human sEH (setting [1]); > 5000 nM and 38000 nM on murine sEH.

Take `CCC(=O)N1CCC(NC(=O)Nc2ccc(Cl)c(C(F)(F)F)c2)CC1` [Compound 35, 1-(4-Chloro-3-(trifluoromethyl)phenyl)-3-(1-propionylpiperidin-4-yl)urea]: the IC50 turned out to be 4.1 nM on Human sEH (setting [1]) and 2.3 nM on murine sEH.

`CCC(=O)N1CCC(NC(=O)Nc2ccc(C(F)(F)F)cc2)CC1` [Compound 36, 1-(1-Propionylpiperidin-4-yl)-3-(4-(trifluoromethyl)phenyl)urea]: at murine sEH, the IC50 was found to be 6.5 nM.

As to `CCC(=O)N1CCC(NC(=O)Nc2cccc(C(F)(F)F)c2)CC1` [Compound 37, 1-(1-Propionylpiperidin-4-yl)-3-(3-(trifluoromethyl)phenyl)urea], the IC50 on Human sEH (setting [1]) was determined as 17 nM; on murine sEH, 8.8 nM.

With `CCC(=O)N1CCC(NC(=O)Nc2ccc(C(F)(C(F)(F)F)C(F)(F)F)cc2)CC1` [Compound 38, 1-(4-Perfluoroisopropylphenyl)-3-(1-propionylpiperidin-4-yl)urea], the IC50 at Human sEH (setting [1]) was 0.4 nM; on murine sEH it was 0.7 nM.

For `CCC(=O)N1CCC(NC(=O)Nc2ccc(C(F)(C(F)(F)F)C(F)(F)F)cc2C)CC1` [Compound 39, 1-(2-Methyl-4-perfluoroisopropylphenyl)-3-(1-propionylpiperidin-4-yl)urea], the figures for the IC50 on Human sEH (setting [1]) and at murine sEH were 17 nM and 28 nM, respectively.

`O=C(Nc1ccc(OC(F)(F)F)cc1)NC1CCN(C(=O)c2ccncc2)CC1` [Compound 47, 1-(1-Isonicotinoylpiperidin-4-yl)-3-(4-(trifluoromethoxy)phenyl)urea]: the values for the IC50 on Human sEH (setting [1]) and at murine sEH were 0.7 nM and 1.3 nM, respectively.

Turning to `O=C(Nc1ccc(OC(F)(F)F)cc1)NC1CCN(C(=O)c2ccc(Cl)nc2)CC1` [Compound 48, 1-(1-(6-Chloronicotinoyl)piperidin-4-yl)-3-(4-(trifluoromethoxy)phenyl) urea], the IC50 on Human sEH (setting [1]) is 0.6 nM; on murine sEH it was 0.7 nM.

Regarding `O=C(Nc1ccc(OC(F)(F)F)cc1)NC1CCN(C(=O)Cc2ccccn2)CC1` [Compound 49, 1-(((Pyridin-2-yl)acetyl)piperidin-4-yl)-3-(4-(trifluoromethoxy)phenyl) urea], the IC50 on Human sEH (setting [1]) is 3.1 nM; at murine sEH it was 5 nM.

Turning to `CC(=O)N1CCN(CC(=O)N2CCC(NC(=O)Nc3ccc(OC(F)(F)F)cc3)CC2)CC1` [Compound 51, 1-(1-((4-Acetylpiperazin-1-yl)acetyl)piperidin-4-yl)-3-(4-(trifluoromethoxy)phenyl)urea], the values for the IC50 on Human sEH (setting [1]) and at murine sEH were 0.5 nM and 1.2 nM, respectively.

For the compound `O=C(Nc1ccc(OC(F)(F)F)cc1)NC1CCN(C(=O)C2CC2)CC1` [Compound 52, 1-(1-(Cyclopropanecarbonyl)piperidin-4-yl)-3-(4-(trifluoromethoxy)phenyl) urea], the IC50 at murine sEH came to 0.4 nM.

Regarding `O=C(Nc1ccc(OC(F)(F)F)cc1)NC1CCN(C(=O)C(F)(F)F)CC1` [Compound 53, 1-(1-(Trifluoroacetyl)piperidin-4-yl)-3-(4-(trifluoromethoxy)phenyl) urea], the IC50 on murine sEH turned out to be 0.4 nM.

For the compound `CS(=O)(=O)N1CCC(NC(=O)Nc2ccc(OC(F)(F)F)cc2)CC1` [Compound 55, 1-(1-(Methylsulfonyl)piperidin-4-yl)-3-(4-(trifluoromethoxy)phenyl)urea], the figures for the IC50 on Human sEH (setting [1]) and at murine sEH were 2.9 nM and 2 nM, respectively.

For `CCS(=O)(=O)N1CCC(NC(=O)Nc2ccc(OC(F)(F)F)cc2)CC1` [Compound 56, 1-(1-(Ethylsulfonyl)piperidin-4-yl)-3-(4-(trifluoromethoxy)phenyl)urea], the IC50 on Human sEH (setting [1]) was 0.4 nM; on murine sEH, 0.7 nM.

`Cc1ccc(S(=O)(=O)N2CCC(NC(=O)Nc3ccc(OC(F)(F)F)cc3)CC2)cc1` [Compound 58, 1-(1-Tosylpiperidin-4-yl)-3-(4-(trifluoromethoxy)phenyl)urea]: on murine sEH, the IC50 was 0.4 nM.
